{"source": "patent US4973578A", "about": "“Synthetic peptides derived from the alpha-subunit of human lycoprotein hormones” (Mayo Foundation for Medical Education and Research, priority 1988, dated 1990)", "target": "T1, TSH receptor on human thyroid membranes (Homo sapiens, UniProt P16473)", "T1 construct": "Thyroid tissue obtained at surgery from patients with Graves' disease was prepared as described by Takahashi et al; from tissue; host or cells: human thyroid tissue from Graves' disease patients, 2000xg membrane fraction", "T1 sequence (P16473 21-764)": "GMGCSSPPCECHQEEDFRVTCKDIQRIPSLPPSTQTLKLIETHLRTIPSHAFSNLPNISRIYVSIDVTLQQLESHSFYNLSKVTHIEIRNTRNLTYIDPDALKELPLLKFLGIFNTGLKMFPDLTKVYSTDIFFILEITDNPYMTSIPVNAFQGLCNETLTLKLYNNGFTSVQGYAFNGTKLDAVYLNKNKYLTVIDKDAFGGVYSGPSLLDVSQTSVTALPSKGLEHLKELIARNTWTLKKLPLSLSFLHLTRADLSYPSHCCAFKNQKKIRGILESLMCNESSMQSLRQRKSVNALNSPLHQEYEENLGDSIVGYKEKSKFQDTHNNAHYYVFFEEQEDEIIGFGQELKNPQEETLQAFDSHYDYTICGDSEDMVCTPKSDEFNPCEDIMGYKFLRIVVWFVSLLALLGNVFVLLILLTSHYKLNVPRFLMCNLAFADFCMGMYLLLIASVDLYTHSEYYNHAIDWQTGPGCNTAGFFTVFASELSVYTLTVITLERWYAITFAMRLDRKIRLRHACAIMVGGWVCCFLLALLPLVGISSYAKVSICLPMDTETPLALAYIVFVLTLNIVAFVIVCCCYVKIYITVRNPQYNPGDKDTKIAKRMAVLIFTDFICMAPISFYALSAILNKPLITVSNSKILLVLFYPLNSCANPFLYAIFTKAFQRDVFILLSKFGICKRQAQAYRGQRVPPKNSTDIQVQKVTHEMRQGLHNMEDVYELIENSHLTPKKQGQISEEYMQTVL", "assay": "TSH radioreceptor assay: inhibition of 125I-bTSH binding to human thyroid membrane preparations", "description": "Thyroid tissue obtained at surgery from patients with Graves' disease was prepared as described by Takahashi et al., J. Clin. Endocrinol. Metab. 47:870 (1978), the disclosure of which is incorporated herein. Briefly, the tissue was dissected free of fibrous material, minced with scissors, and homogenized with Polytron homogenizer. The 2000×g fraction was collected by centrifugation, washed and resuspended in 40 mM Tris, 0.1% Bovine Serum Albumin (BSA) pH 7.4 at a concentration of 100 mg equivalents of wet tissue per milliliter. The preparation was stored at -70° C. until used for assay.\nHighly purified bovine TSH (30 IU/mg, supplied by Dr. J. G. Pierce, UCLA) was radio-iodinated (Na^125 I, Amersham, Chicago) by a gentle lactoperoxidase procedure described by Takahashi et al., supra, then purified by Sephadex G-100 chromatography.\nThe membrane assay incubation mixture consisted of […] of the 2000×g membrane fraction, 0.125 ng ^125 I bTSH (approximately 20,000 cpm, 5×10^-12 M), 100 ul of 1% Triton X-100 and noted amounts of test materials in a final volume of 0.5 ml of 40 mM Tris-HCl pH 7.4 plus 0.1% BSA. Nonspecific binding was determined by addition of excess unlabeled bTSH (200 mU/ml, Sigma, St. Louis). After 2 hrs incubation at 25° C., 200 ul of 5 mg/ml bovine gamma globulin and 1 ml 30% polyethylene glycol 6000 (Baker, Phillipsburg, N.J.) in 1M NaCl was added to each tube and the tubes centrifuged at 4000 rpm for 25 minutes. The supernatants were aspirated and pellets counted in a gamma counter. Specific binding averaged 25% of total counts.\nFIG. 1 reports 5×10^-12 M labeled bTSH incubated with 10 mg equivalents (wet weight) of 2000×g fraction of thyroid membranes with varying concentrations of unlabeled TSH or synthetic α-subunit peptides. Nonspecific binding was determined in the presence of excess unlabeled TSH.", "note": "Residues, ends and D or L forms follow the SMILES beside them."}
{"compound": "CSCC[C@H](NC(=O)[C@H](CS)NC(=O)[C@H](CCC(N)=O)NC(=O)[C@@H](N)CC(C)C)C(=O)NCC(=O)N[C@@H](CS)C(=O)N[C@@H](CS)C(=O)N[C@@H](Cc1ccccc1)C(=O)N[C@@H](CO)C(=O)N[C@@H](CCCNC(=N)N)C(=O)N[C@@H](C)C(=O)N[C@@H](Cc1ccc(O)cc1)C(=O)N1CCC[C@H]1C(=O)N[C@H](C(=O)N1CCC[C@H]1C(=O)N[C@@H](CC(C)C)C(=O)N[C@@H](CCCNC(=N)N)C(=O)N[C@@H](CO)C(=O)N[C@@H](CCCCN)C(=O)N[C@@H](CCCCN)C(=O)N[C@H](C(N)=O)[C@@H](C)O)[C@@H](C)O", "note": "[α26-46, Leu--Gln--Cys--Met--Gly--Cys--Cys--Phe--Ser--Arg--Ala--Tyr--Pro--Thr--Pro--Leu--Arg--Ser--Lys--Lys--Thr--(NH2)] (H-LQCMGCCFSRAYPTPLRSKKT-NH2)", "values": [{"measurement": "displacement of 125I-bTSH label", "setting": "at concentrations greater than 1×10^-5 m, FIG. 1", "result": "more than 80%"}, {"measurement": "IC50", "setting": "human thyroid membrane homogenates, ± S.E., read-out: bTSH ED50 (effective dose necessary to inhibit binding of 125I-bTSH by 50%)", "result": "10.8 ± 0.3", "unit": "µM"}, {"measurement": "inhibition of 125I-bTSH binding, result in words", "setting": "human thyroid membranes, FIG. 1", "result": "dose dependent inhibition"}]}
